Test results: US5308605A, “Diagnosis of tumors with 5-radioiodo-2'-deoxyuridine” (priority 1992, dated 1994)
Read-outs that look alike come from different tables or passages of the source.

How the values were obtained:
9 L gliosarcoma [1] = assay: Scintigraphic imaging of brain tumors after intratumor injection; conditions: control animals; images 12-38 h
9 L gliosarcoma [2] = assay: Biodistribution 40 h after injection in brain tumor-bearing rats
[3] = tested on: murine ovarian tumor (MOT); assay: Scintigraphic imaging of ovarian tumor-bearing mice; assay type: in vivo, C3HeB/FeJ mice; conditions: later than 1 h (2, 16, 24 hr); 300 μCi
[4] = tested on: murine ovarian tumor (MOT); assay: Antineoplastic effect (survival fraction, median survival) in mouse ascites tumor; assay type: in vivo, C3HeB/FeJ mice
Text: 2. ^125 IUdR Is an Effective Antineoplastic Agent In A Mouse Ascites Tumor. The tumor used in these experiments is the same murine ovarian tumor described above. We have determined the median survival of mice after i.p. challenge with various tumor cell inocula.
The relatively long survival of tumor-bearing mice facilitates quantitative evaluation of tumor cell killing after treatment with ^125 IUdR and can be used to calculate a cellular survival fraction.

[5] = tested on: transitional cell carcinoma of the bladder; assay: Planar scintigraphy of MNU-induced bladder cancer; assay type: in vivo, Fisher 344 rats; conditions: day 3, intravesical
Description: The carcinogen N-methyl-N-nitrosourea (MNU), known to induce transitional cell carcinoma of the bladder, was instilled directly into the bladder lumen of 4-to-5-week old female Fisher 344 rats (20 animals) via bladder catheterization using a 22-gauge angiocatheter (1.5 mg/0.15 ml saline intravesically, every other week for a total of 4 doses). The drinking water was supplemented with a combination of trimethoprim-sulfamethoxasole, neomycin sulfate and polymixin B. Twelve to sixteen weeks after the last MNU infusion, the bladder was catheterized and emptied and [^125 I/^131 I ]IUdR (6. 4 to 10. 9 MBq [^125 I]IUdR [172 to 294 μCi] and 10.7 MBq [^131 I ]IUdR [290 μCi]) was administered through the catheter in a 100- or 200- μl volume and left in place for 2 h. The bladder contents were then withdrawn and the bladder rinsed with normal saline (5×1-ml). Nontumor-bearing control rats (16 animals) were injected by the same route with identical amounts of [^125 I/^131 I]IUdR. The drinking water of all animals was supplemented with 0. 1% potassium iodide from 48 to 72 h prior to the administration of the radiopharmaceutical up to the time of sacrifice. The tumor-bearing rats and the non-tumor bearing control rats were divided into Group A consisting of 12 tumor-bearing and 12 control rats, and Group B consisting of 8 tumor-bearing and 4 control rats. […]

[6] = humans; unincorporated IUdR; cited from earlier work
[7] = mouse; unincorporated IUdR; cited from earlier work
[8] = tested on: transitional cell carcinoma of the bladder; assay type: in vivo, Fisher 344 rats
Text: No carrier added [^125 I/^131 I] IUdR was synthesized as described previously, see U.S. Pat. No. 4,851,520 hereby incorporated by reference, and purified on a C18 reverse phase HPLC column. The radiochemical purity of the product was>99% as determined by TLC with specific activities of 81.40 TBq/mmol and 96.94 GBq/mmol for [^125 I] IUdR and [^131 I] IUdR, respectively.
The carcinogen N-methyl-N-nitrosourea (MNU), known to induce transitional cell carcinoma of the bladder, was instilled directly into the bladder lumen of 4-to-5-week old female Fisher 344 rats (20 animals) via bladder catheterization using a 22-gauge angiocatheter (1.5 mg/0.15 ml saline intravesically, every other week for a total of 4 doses). […]
The biodistribution studies were conducted at 48 hours and at 1 week after administration of radiolabeled IUdR in order to quantitate the in vivo distribution of the radiopharmaceutical in terms of percent injected dose per gram of tissue (%ID/g) and to derive tumor to normal tissue ratios. Various organs and tissues of interest were excised, rinsed, blotted dry, weighed, and their radioactive content was determined in a gamma counter along with that of urine, stomach contents, blood and bone marrow.

DNA = assay: Microautoradiography of bladder, intestine and bone marrow; assay type: in vivo, Fisher 344 rats
Description: The carcinogen N-methyl-N-nitrosourea (MNU), known to induce transitional cell carcinoma of the bladder, was instilled directly into the bladder lumen of 4-to-5-week old female Fisher 344 rats (20 animals) via bladder catheterization using a 22-gauge angiocatheter (1.5 mg/0.15 ml saline intravesically, every other week for a total of 4 doses). The drinking water was supplemented with a combination of trimethoprim-sulfamethoxasole, neomycin sulfate and polymixin B. Twelve to sixteen weeks after the last MNU infusion, the bladder was catheterized and emptied and [^125 I/^131 I ]IUdR (6. 4 to 10. 9 MBq [^125 I]IUdR [172 to 294 μCi] and 10.7 MBq [^131 I ]IUdR [290 μCi]) was administered through the catheter in a 100- or 200- μl volume and left in place for 2 h. The bladder contents were then withdrawn and the bladder rinsed with normal saline (5×1-ml). Nontumor-bearing control rats (16 animals) were injected by the same route with identical amounts of [^125 I/^131 I]IUdR. The drinking water of all animals was supplemented with 0. 1% potassium iodide from 48 to 72 h prior to the administration of the radiopharmaceutical up to the time of sacrifice. The tumor-bearing rats and the non-tumor bearing control rats were divided into Group A consisting of 12 tumor-bearing and 12 control rats, and Group B consisting of 8 tumor-bearing and 4 control rats. Group A was sacrificed 48 hours after administration of the radiopharmaceutical while Group B was sacrificed one (1) week after administration of the radiopharmaceutical.
The specificity of targeting and the DNA-incorporation of [^125 I]IUdR were determined by microautoradiography. The distribution and frequency of grains were assessed over the entire section and compared to the histopathologic findings. At the time of the biodistribution studies, the small intestine and the large intestine were quickly frozen in isopentane and liquid nitrogen. Bone marrow smears were fixed in 100% methanol. After rinsing with normal saline, the bladder was fixed in situ with 10% buffered formaldehyde, excised, and subsequently embedded in paraffin. The tissues were then sectioned (5-7 μm thickness), fixed (except for the bladder sections already fixed in vivo) and processed for autoradiography as were the bone marrow smears.
The tissue sections and bone marrow slides were coated with NTB2 emulsion (Kodak) and stored desiccated at 4° C. in light-tight boxes. After various times of emulsion exposure (up to 7 months), the autoradiographic slides were developed for 3 min in D-19 developer (Kodak) and fixed for 5 min in D-11 fixer (Kodak). Finally, the tissue sections were washed in distilled water, stained with hematoxylin/eosin, dehydrated, cleared, and mounted in Permount. Bone marrow slides were stained with Giemsa stain. Tissue and bone marrow slides were then examined under light microscopy.

O=c1[nH]c(=O)n([C@H]2C[C@H](O)[C@@H](CO)O2)cc1I [^123 IUdR, 5-iodo-2'-deoxyuridine]
clearance of activity from the head (9 L gliosarcoma [1]): clearance of the activity from the head of all control animals by 12 h
injected dose found in tumor (9 L gliosarcoma [2]; one animal, tumor occupied large portion of right brain specimen): 25 % of the injected dose
injected dose per gram, right brain (injected side), sham-operated (9 L gliosarcoma [2]; sham-operated controls, mean±SD): 0.09±0.02 %ID/g
injected dose per gram, right brain (injected side), tumor-bearing (9 L gliosarcoma [2]; tumor-bearing animals, mean±SD, P<0.05 vs sham): 0.36±0.14 %ID/g
focal area of abdominal activity, later time points [3]: persisted only in MOT-bearing mice while it cleared from the abdomen of animals without tumor
survival fraction of tumor cells as a function of dose ([4]; 5 i.p. injections, 4 h intervals): an exponential decrease is obtained similar to that observed with the ^125 IUdR data
median survival of tumor-bearing animals ([4]; 5 i.p. injections, 4 h intervals, 24 h post tumor inoculation): prolongs median survival of the tumor-bearing animals (FIG. 7 of the incorporated patent) in a dose-dependent fashion

O=c1[nH]c(=O)n([C@H]2C[C@H](O)[C@@H](CO)O2)cc1I [[^131 I]IUdR, 5-iodo-2'-deoxyuridine]
scintigraphic activity in normal animals [5]: virtual absence of activity in normal animals
scintigraphic activity in tumor-bearing animals [5]: only visible area of activity remaining in the tumor-bearing animals was over the region of the bladder
decrease in survival ([4]; equivalent doses, 131I label): does not result in any decrease in survival

O=c1[nH]c(=O)n([C@H]2C[C@H](O)[C@@H](CO)O2)cc1I [IUdR, 5-Iodo-2'-deoxyuridine]
half-life in circulation [6]: less than five
half-life in circulation [7]: less than seven

O=c1[nH]c(=O)n([C@H]2C[C@H](O)[C@@H](CO)O2)cc1I [^125 IUdR, 5-iodo-2'-deoxyuridine]
percent injected dose per gram of bladder, tumor-bearing vs control ([8]; 48 h): significant difference
permeation to the systemic circulation ([8]; rat, not told): very low
penetration into the bladder wall (DNA; animals with infection/inflammation): potential for radiolabeled IUdR to penetrate deep within the bladder wall
uptake in squamous metaplasia and bacteria (DNA; basal layer of squamous metaplasia, bacteria when active infection present): Uptake was also observed in the basal layer of squamous metaplasia and in bacteria when active infection was present
cell-associated silver grains in bone marrow smears (DNA; bone marrow): free of cell-associated silver grains
uptake in the urothelium of control animals (DNA; control animals): did not show uptake in the urothelium
autoradiographic uptake by the tumor (DNA; hyperplasia and papillary carcinoma stages): uptake of radiolabeled IUdR by the tumor at the early stage of tumor development, i.e. the hyperplasia stage, as well as in the later papillary carcinoma stage
silver grains in actively dividing normal epithelia (DNA; rat, in vivo): did not show the presence of silver grains
silver grains in normal urothelium (DNA; rat, in vivo): generally free of silver grains
DNA incorporation by abnormal urothelium vs normal (DNA; tumor-bearing animals): always significantly higher
tumor cell survival fraction (plateau) ([4]; seven consecutive injections): 10^-5
